Experimental data: patent US8758988B2, “Cryopreservation of articular cartilage” (The Governors of the University of Alberta, priority 2009, dated 2014)
Like-named read-outs stand apart in the source and are kept apart here.

How the values were obtained:
[1] = Arrhenius fit of CPA diffusion coefficients (constants and activation energies); assay type: physicochemical; conditions: for Ea (activation energy) / Dcwo (Arrhenius constant): Table (1), Arrhenius fit of diffusion coefficients; for Dcwo (Arrhenius constant): R = 0.001986 Kcal/(mol. K)
Procedure: Full thickness AC (on 5-10 mm bone base) is harvested from the sample tissue using a hand-held coring device and held at 4° C. in 1× Dulbecco's phosphate-buffered saline (PBS) solution (pH 7.1) (Gibco Invitrogen, Carlsbad, Calif.). Each osteochondral dowel (OCD) is assigned to one of four CPA treatment groups [DMSO, PG, EG, glycerol (all at 6.5M, in 1×PBS)] and one of 11 incubation times (1 second, 1, 2, 5, 10, 15, 30, 60, 120, 180 minutes, 24 hours), as well as one of three temperatures (4, 22, 37° C.). Each combination of treatment, time, and temperature is repeated at least three times.
The tissue sample is isolated by scalpel and the tissue returned to 1×PBS for 5 min, then blotted lightly using Kimwipes® tissue (Kimberly-Clark, Roswell, Ga.) to remove excess fluid from the sample surface, weighed (W1), and immediately immersed in 5 ml of CPA solution for the specified incubation time at the specified temperature. After incubation, the sample is removed from the solution, blotted lightly and weighed for a second time (W2). The sample is then placed into a 35×10 mm cell culture dish (Corning Inc., Corning, N.Y.) containing 4 mL of 1×PBS, fully immersed in the PBS and the dish sealed with Parafilm® (American National Can, Chicago, Ill.) and held for 24 h at 22° C. under dark conditions to allow the CPA within the AC disc to fully equilibrate with the surrounding PBS solution. After 24 h, the CPA/PBS solution is mixed using a pipettor and a 1 mL sample is taken into a 1.5 mL microcentrifuge tube (Thermo Fisher Scientific, Waltham, Mass.). From this sample, 50 μL is placed into a μOSMETTE™ micro-osmometer (Precision Systems, Natick, Mass.) to determine its osmolality (Osm).
The values of the diffusion coefficients for the single CPA diffusion in water were used in the calculations. The values of the diffusion coefficients were calculated before, by fitting Fick's law to the experimental data, as explained in the preceding section of this patent labeled “Permeation Kinetics of CPAs in AC matrix”.
[formula] at x=0, and CCPA=C* at x=THK, where C* is the concentration of the CPA in the external bath at each step of the protocol. The temperature dependence of the diffusion coefficients was calculated by fitting an Arrhenius equation to the values of diffusion coefficients obtained for each CPA at 3 different temperatures as in the preceding section of this patent labeled “Permeation Kinetics of CPAs in AC matrix”. The values of diffusion coefficients were taken from Jomha et al (N M Jomha, G K Law, A Abazari, K Rekieh, J A W Elliott, L E McGann. Permeation of several cryoprotectant agents into porcine articular cartilage. Cryobiology 58(1), 110-114, 2009). For F (formamide), 2 values for diffusion coefficients of formamide in water at 2 different temperatures were extracted from the literature:
Then, these values were fitted to an Arrhenius equation to calculate the constant and activation energy for formamide. As an example, the increase in the minimum DMSO concentration in cartilage, diffusing from a bath of 3 M DMSO solution, at −10° C., was calculated by solving Eqn. (8) as the following:
First, the diffusion coefficient of DMSO in water at −10° C. was calculated from the results of the Arrhenius fit in Table (1). DDMSO(at T=−10° C.=263 K)=298.95×10^−9×exp(−3.9/0.001986/263)=1.71×10^−10 m^2/s

[2] = formamide in water, cited from earlier work

Row | diffusion coefficient of DMSO in water ([1]; at T=−10° C.=263 K, calculated from the Arrhenius fit in Table (1)) | SMILES | Ea (activation energy) [1] [kcal/mol] | Dcwo (Arrhenius constant) [1] | Diffusion coefficient (m^2/s) ([2]; Temperature 278.2 K) | Diffusion coefficient (m^2/s) ([2]; Temperature 298.15 K)
1 | 1.71×10^−10 m^2/s | C[S+](C)[O-] [D (DMSO), dimethyl sulfoxide] | 3.9 | 298.95 ×10^−9 m^2/s |  | 
2 |  | OCCO [E (EG), ethylene glycol] | 3.8 | 183.30 ×10^−9 m^2/s |  | 
3 |  | NC=O [F (Form), formamide] | 4.198 | 1903.510 ×10^−9 m^2/s | 0.95 × 10^−9 m^2/s | 1.58 × 10^−9 m^2/s
4 |  | OCC(O)CO [G (Gly), glycerol] | 5.6 | 208.03 ×10^−9 m^2/s |  | 
5 |  | CC(O)CO (stereo not shown) [P (PG), propylene glycol] | 6.63 | 16971.0 ×10^−9 m^2/s |  | 
